Laboratory results reported in ChEMBL document CHEMBL1201862, “PubChem BioAssay data set” (2004).
The source made the active and inactive calls.

Columns and labels:
[1] = molecular target: T1, Type-1 angiotensin II receptor (Homo sapiens, UniProt P30556); test: antagonism of angiotensin II type 1 receptor – cell-based, uHTS hits, selectivity assay for APJ receptor antagonist project, dose response (AID 463214); format: functional;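 note: antagonist potency against angiotensin II stimulated AT1 response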
T1 sequence (P30556 whole entry): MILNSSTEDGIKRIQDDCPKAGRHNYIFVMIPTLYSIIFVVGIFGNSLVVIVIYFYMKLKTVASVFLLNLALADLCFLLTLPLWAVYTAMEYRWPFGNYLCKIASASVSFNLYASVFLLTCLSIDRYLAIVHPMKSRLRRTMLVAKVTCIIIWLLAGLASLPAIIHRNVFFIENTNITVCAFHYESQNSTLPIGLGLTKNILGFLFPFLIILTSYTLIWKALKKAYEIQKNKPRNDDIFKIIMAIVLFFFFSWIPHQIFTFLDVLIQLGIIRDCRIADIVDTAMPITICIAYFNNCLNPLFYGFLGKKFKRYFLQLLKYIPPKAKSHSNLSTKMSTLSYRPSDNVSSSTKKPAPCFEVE

Beta-galactosidase = Beta-galactosidase (Escherichia coli, UniProt Q8VNN2); test: PubChem AID 485352; format: functional
[2] = molecular target: T2, Heat shock factor protein 1 (Mus musculus, UniProt P38532); test: enhancement of HSF1-driven luciferase signal – cell-based, NIH3T3, luminescence, dose retest, confirmation (AID 435004); format: functional;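 note: stress induced by proteasome inhibitor MG132 added 30 min after compound; luciferase reporter driven by HSF1 response element in NIH3T3 cells; actives raise luminescence as potentiators of the MG132 stress response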
T2 sequence (P38532 whole entry): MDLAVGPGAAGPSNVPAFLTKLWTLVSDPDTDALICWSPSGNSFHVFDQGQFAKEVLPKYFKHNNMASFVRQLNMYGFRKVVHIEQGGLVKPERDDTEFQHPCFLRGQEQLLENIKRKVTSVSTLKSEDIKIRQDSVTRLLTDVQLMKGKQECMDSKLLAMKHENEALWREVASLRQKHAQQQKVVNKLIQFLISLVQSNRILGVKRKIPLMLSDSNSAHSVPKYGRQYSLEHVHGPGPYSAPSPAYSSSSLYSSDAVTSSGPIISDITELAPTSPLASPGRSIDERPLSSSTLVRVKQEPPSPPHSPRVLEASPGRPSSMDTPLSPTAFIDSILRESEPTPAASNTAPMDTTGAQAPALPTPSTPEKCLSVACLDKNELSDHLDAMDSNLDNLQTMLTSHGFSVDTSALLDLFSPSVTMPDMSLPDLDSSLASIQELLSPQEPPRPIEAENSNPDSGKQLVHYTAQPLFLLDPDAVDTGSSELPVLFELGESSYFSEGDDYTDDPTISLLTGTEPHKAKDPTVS

Large T antigen = Large T antigen (Simian virus 40, UniProt P03070); format: functional, Betapolyomavirus macacae;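 note: Confirmatory-stage PubChem screen for compounds that inhibit SV40 T antigen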
Vero = test: viability of Vero cells under compound – cytotoxicity control for flavivirus capping enzyme inhibitors (AID 588742); format: functional; settings: Chlorocebus sabaeus
[3] = Luminescence Cell-Based Dose Confirmation HTS to Identify Activators of 5'UTR Stem-Loop Driven Alpha-Synuclein mRNA Translation in H4 Neuroglioblastoma Cells. [Related pubchem assays: 1829 (Project Summary), 1814 (Primary HTS)]; format: functional
[4] = molecular target: T3, Sentrin-specific protease 6 (Homo sapiens, UniProt Q9GZR1); test: SAR Analysis of small molecule inhibitors of Sentrin-specific protease 6 (SENP6) using a Luminescent assay. [Related pubchem assays (depositor defined):AID2582, AID2599]; format: functional
T3 sequence (Q9GZR1 whole entry): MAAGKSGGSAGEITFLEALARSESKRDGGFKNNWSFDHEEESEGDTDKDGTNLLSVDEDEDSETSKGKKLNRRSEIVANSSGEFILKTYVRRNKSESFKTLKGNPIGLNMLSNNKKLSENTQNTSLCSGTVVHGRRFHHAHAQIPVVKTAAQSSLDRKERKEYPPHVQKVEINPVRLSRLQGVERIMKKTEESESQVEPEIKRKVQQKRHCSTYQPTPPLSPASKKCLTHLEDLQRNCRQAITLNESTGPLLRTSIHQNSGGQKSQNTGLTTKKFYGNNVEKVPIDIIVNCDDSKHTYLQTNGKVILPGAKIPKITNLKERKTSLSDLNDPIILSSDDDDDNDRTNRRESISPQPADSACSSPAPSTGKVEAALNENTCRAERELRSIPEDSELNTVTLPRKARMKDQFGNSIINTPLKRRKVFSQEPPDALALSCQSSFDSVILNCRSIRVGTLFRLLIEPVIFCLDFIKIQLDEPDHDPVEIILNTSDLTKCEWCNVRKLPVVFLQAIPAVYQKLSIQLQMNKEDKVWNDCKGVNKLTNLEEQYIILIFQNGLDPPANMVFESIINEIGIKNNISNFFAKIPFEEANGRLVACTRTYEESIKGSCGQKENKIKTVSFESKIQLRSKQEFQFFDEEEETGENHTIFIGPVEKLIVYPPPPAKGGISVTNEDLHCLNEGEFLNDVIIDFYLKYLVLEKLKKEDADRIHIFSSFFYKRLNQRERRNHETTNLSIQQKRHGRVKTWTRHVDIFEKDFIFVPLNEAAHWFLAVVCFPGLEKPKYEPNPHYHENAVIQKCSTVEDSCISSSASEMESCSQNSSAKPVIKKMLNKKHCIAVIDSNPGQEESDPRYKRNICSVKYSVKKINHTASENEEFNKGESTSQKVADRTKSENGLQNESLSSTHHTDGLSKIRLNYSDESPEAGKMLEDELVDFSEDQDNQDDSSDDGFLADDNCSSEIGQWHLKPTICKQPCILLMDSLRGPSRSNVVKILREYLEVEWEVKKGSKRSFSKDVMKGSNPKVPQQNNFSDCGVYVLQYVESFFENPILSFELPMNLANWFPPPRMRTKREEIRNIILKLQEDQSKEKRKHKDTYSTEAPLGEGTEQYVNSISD

Caspase-3 = molecular target: T4, Caspase-3 (Homo sapiens, UniProt P42574); test: SAR Analysis of small molecule inhibitors of Sentrin-specific proteases (SENPs) using a Caspase-3 Selectivity assay. [Related pubchem assays (depositor defined):AID2540, AID2599, AID434973, AID489001]; format: functional
T4 sequence (P42574 whole entry): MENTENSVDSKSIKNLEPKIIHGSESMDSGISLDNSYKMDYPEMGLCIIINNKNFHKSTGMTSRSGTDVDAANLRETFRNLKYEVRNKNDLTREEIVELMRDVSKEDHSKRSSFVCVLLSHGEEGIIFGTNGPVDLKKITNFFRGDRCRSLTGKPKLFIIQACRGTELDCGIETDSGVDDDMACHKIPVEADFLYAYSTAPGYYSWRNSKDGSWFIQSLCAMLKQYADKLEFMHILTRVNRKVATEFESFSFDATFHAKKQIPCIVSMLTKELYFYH

[5] = Luminescence Cell-Based Dose Response HTS to Identify Activators of Luciferase Translation or Activity in H4 […] Cells. [Related pubchem assays: 1829 (Project Summary), 1814 (Primary HTS)]; format: functional
[6] = molecular target: T5, Sentrin-specific protease 8 (Homo sapiens, UniProt Q96LD8); test: inhibition of human SENP8 cleavage activity – biochemical, luminescence, SAR follow-up (AID 504501); format: functional
T5 sequence (Q96LD8 whole entry): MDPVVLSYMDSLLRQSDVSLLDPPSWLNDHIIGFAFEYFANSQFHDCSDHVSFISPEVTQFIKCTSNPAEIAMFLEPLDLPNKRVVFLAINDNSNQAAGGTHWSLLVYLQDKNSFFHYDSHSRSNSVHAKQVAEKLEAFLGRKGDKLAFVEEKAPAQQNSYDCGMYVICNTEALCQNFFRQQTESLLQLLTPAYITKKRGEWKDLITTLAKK

H4 = test: Luminescence Cell-Based Dose Response HTS to Identify Activators of 5'UTR Stem-Loop Driven Prion Protein mRNA Translation in H4 Neuroglioblastoma Cells. [Related pubchem assays: 1829 (Project Summary), 1814 (Primary HTS)]; format: functional; settings: Homo sapiens
[7] = molecular target: T6, High affinity choline transporter 1 (Homo sapiens, UniProt Q9GZV3); test: human choline transporter blockers, potency – cell-based, 5-point CRC, membrane potential dye, dose response (AID 504840); format: functional
T6 sequence (Q9GZV3 whole entry): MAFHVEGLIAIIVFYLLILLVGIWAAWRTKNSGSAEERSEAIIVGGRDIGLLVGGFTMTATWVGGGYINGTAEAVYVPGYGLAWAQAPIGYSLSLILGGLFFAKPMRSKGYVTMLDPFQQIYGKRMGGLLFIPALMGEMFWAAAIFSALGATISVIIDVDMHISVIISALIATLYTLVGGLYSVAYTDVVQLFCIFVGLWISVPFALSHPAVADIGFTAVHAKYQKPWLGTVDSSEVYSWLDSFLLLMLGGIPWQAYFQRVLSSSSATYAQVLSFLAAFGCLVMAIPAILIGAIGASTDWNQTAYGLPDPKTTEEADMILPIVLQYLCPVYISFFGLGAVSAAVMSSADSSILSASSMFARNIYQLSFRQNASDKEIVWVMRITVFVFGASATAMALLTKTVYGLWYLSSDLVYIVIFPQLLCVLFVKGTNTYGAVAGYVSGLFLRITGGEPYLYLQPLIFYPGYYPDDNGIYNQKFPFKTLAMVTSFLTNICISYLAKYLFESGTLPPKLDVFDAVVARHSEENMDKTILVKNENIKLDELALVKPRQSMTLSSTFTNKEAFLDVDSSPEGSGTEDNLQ

[8] = molecular target: T6, High affinity choline transporter 1; test: human choline transporter blockers, potency – cell-based, 10-point CRC, membrane potential dye, dose response (AID 588401); format: functional;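 note: membrane potential dye fluorescence of choline-evoked depolarization via CHT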
Genome polyprotein = Genome polyprotein (dengue virus type 2, UniProt P29990); test: flavivirus cap methylation enzyme inhibition – biochemical, confirmation dose response, primary screen (AID 588689); format: functional
[9] = molecular target: Beta-2 adrenergic receptor (Homo sapiens, UniProt P07550); test: ADRB2 activation measured by internalization – cell-based, FAP fluorogen, flow cytometry, cherry pick 1, dose response (AID 588763); format: functional
[10] = molecular target: T7, Lysosomal acid glucosylceramidase (Homo sapiens, UniProt P04062); test: Dose response cell-based high throughput screening assay to identify enhancers of beta-glucosidase activity. [Related pubchem assays: 784 ]; format: functional
T7 sequence (P04062 whole entry): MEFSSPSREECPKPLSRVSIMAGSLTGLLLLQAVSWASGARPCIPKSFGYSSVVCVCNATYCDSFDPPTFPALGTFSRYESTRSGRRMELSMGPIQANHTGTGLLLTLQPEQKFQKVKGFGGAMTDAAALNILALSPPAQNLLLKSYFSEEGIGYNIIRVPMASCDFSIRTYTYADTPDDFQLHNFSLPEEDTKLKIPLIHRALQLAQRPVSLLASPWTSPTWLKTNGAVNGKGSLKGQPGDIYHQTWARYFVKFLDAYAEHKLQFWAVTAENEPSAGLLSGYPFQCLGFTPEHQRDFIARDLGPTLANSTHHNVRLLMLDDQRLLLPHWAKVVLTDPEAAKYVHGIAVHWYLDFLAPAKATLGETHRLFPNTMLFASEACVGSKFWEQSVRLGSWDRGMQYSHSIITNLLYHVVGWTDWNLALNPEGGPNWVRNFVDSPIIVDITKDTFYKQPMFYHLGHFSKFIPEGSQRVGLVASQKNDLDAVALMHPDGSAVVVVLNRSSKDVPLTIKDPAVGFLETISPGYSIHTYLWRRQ

[11] = molecular target: Glucose-6-phosphate 1-dehydrogenase (Homo sapiens, UniProt P11413); test: inhibition of Homo sapiens G6PD, dose series – biochemical, fluorescence, selectivity assay for P. falciparum G6PD inhibitor project, dose response (AID 504792); format: functional
[12] = molecular target: T8, Long-chain-fatty-acid--AMP ligase FadD28 (Mycobacterium tuberculosis, UniProt P9WQ59); test: Fluorescence polarization aasay to screen for inhibitors that compete for the binding of FadD28 to a bisubstrate Measured in Biochemical System Using Plate Reader - 2147-01_Inhibitor_Dose_CherryPick_Activity.; format: functional, Mycobacterium tuberculosis H37Rv
T8 sequence (P9WQ59 whole entry): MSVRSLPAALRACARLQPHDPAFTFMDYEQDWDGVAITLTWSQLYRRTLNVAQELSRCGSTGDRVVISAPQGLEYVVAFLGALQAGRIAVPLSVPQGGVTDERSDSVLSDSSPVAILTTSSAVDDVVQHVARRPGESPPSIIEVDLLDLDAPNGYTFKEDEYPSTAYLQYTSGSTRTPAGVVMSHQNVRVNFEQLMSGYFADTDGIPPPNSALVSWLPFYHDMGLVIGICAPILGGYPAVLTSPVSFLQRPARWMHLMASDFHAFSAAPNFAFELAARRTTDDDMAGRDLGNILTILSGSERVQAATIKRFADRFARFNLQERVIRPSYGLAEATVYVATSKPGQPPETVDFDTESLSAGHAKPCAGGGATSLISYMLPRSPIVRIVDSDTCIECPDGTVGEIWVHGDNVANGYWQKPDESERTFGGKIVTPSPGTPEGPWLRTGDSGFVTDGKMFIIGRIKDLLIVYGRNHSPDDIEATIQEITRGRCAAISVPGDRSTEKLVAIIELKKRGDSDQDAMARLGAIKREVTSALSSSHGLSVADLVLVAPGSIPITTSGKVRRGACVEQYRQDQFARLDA

Beta-galactosidase, sequence (Q8VNN2 whole entry): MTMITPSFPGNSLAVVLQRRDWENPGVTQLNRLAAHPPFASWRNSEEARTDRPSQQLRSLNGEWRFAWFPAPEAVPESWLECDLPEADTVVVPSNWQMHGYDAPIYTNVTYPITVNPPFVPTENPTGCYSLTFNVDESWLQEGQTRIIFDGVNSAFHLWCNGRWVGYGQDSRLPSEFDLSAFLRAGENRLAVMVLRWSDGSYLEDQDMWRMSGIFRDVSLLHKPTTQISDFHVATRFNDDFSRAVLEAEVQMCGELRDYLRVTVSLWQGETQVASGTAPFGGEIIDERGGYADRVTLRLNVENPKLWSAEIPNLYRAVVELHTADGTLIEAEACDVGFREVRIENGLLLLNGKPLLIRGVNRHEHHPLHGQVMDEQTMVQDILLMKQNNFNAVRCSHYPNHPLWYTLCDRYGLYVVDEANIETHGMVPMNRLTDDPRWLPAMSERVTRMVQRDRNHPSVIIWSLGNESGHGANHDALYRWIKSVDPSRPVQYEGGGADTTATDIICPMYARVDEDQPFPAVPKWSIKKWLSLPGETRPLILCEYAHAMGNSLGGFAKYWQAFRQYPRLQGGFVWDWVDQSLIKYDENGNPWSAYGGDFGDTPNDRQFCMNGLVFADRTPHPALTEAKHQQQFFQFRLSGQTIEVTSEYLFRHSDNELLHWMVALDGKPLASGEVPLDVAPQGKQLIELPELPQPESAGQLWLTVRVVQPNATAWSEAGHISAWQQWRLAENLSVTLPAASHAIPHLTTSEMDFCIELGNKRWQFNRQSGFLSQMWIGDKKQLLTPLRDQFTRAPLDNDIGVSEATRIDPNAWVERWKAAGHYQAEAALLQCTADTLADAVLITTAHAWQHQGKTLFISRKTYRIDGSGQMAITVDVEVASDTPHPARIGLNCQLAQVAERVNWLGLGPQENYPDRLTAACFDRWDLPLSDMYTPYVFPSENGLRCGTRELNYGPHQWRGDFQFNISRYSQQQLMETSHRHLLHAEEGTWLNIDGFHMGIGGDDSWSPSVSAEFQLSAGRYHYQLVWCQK
Genome polyprotein, sequence (P29990 2492-3391 limits assumed): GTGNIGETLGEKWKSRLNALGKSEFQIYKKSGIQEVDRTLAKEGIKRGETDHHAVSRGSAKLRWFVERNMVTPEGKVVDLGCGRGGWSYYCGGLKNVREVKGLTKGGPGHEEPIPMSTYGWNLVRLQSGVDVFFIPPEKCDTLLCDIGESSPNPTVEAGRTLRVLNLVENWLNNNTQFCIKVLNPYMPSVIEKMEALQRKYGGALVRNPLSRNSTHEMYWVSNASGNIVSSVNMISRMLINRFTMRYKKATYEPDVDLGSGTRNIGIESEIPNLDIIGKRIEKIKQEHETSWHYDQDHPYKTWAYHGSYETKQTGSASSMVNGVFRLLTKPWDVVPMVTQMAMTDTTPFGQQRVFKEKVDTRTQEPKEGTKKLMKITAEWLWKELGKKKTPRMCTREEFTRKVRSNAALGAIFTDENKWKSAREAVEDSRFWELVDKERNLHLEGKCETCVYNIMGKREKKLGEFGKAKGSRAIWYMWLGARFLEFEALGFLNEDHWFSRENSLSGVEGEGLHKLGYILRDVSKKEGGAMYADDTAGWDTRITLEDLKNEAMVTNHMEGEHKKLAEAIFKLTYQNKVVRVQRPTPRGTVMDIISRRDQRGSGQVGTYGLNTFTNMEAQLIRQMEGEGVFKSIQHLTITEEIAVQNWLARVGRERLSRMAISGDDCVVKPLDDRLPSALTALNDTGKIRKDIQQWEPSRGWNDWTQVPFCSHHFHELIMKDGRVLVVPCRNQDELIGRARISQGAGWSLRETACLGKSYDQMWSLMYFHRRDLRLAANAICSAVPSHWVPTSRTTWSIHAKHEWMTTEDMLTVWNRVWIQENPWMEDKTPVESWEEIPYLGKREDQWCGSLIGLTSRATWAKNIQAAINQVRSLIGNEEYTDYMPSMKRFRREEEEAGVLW
Beta-2 adrenergic receptor, sequence (P07550 whole entry): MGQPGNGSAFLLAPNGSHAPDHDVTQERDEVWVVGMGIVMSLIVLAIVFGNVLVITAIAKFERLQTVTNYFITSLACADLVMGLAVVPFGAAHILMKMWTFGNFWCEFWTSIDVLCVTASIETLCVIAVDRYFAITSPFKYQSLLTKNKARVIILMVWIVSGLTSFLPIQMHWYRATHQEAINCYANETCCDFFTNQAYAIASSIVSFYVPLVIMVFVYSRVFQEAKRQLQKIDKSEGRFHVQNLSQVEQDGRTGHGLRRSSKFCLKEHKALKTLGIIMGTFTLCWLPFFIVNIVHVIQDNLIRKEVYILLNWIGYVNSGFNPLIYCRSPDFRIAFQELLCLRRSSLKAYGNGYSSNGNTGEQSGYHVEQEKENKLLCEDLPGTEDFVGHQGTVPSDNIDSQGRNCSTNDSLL
Glucose-6-phosphate 1-dehydrogenase, sequence (P11413 whole entry): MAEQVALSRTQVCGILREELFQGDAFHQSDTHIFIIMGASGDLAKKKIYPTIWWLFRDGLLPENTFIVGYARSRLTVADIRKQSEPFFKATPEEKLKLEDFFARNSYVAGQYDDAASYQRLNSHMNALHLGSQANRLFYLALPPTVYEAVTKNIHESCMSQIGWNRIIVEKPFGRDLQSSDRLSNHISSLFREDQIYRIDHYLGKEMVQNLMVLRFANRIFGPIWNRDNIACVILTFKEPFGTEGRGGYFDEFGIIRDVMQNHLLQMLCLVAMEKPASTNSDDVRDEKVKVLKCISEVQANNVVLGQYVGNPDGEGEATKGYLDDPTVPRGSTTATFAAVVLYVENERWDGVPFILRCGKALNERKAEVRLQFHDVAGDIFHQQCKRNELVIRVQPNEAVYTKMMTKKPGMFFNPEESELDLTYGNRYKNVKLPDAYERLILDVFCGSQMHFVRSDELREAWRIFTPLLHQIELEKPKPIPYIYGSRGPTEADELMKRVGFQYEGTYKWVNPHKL
Large T antigen, sequence (P03070 whole entry): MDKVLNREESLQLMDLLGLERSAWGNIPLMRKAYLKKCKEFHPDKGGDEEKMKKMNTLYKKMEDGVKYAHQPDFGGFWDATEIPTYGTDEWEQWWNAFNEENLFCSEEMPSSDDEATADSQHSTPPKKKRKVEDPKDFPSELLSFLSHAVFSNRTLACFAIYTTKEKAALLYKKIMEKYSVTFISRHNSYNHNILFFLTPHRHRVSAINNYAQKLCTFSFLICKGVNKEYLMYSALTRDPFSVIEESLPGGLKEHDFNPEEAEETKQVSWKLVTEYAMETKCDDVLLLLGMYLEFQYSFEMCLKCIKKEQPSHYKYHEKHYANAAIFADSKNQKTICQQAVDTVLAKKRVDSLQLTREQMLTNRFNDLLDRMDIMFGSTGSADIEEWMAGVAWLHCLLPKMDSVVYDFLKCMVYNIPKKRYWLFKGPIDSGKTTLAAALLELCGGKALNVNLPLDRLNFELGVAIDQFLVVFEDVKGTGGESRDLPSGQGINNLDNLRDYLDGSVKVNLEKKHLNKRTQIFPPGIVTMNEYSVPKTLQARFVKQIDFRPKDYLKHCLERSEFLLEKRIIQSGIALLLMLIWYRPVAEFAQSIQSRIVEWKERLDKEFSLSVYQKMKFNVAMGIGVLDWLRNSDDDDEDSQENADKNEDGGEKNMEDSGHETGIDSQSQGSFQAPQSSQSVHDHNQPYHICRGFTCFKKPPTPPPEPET

CC(=O)c1ccc(NC2=c3ccccc3=NC2=O)cc1
IC50 [1]: 3.1 µM (active)
EC50 (Beta-galactosidase): > 40 µM (inactive)
EC50 [2]: > 260 µM (inactive)

CCc1ccc(C(=O)NNc2ccc(Cl)cc2)cc1
IC50 [1]: 6.08 µM (active)
EC50 (Beta-galactosidase): > 40 µM (inactive)

O=C(O)CN1C(=O)/C(=C\C(Br)=C\c2ccccc2)SC1=S
IC50 (Large T antigen): 53.4 µM (active)
CC50 (Vero): > 40 µM (active)

CC(=O)Nc1ccc(/C=C/c2n[nH]c(-c3ccccc3O)n2)cc1
EC50 [3]: 2.79 µM (active)
IC50 [4]: > 99 µM (inactive)
IC50 (Caspase-3): 30 µM (active)
EC50 [5]: 13.6 µM (active)
IC50 [6]: > 99 µM (inactive)
EC50 (H4): 1.33 µM (active)

CC(NC(=O)NC1CCCCC1)c1ccc2c(c1)OCO2 (configuration not stated)
IC50 [7]: 3.47 µM (active)
IC50 [8]: 2.57 µM (active)

O=S(=O)(Nc1nc2ccccc2nc1NCc1ccco1)c1ccc(Cl)cc1
IC50 (Genome polyprotein): 91.9 µM (active)
CC50 (Vero): > 40 µM (active)

NC(=O)CC(NC(=O)Cc1cccc2ccccc12)c1ccc(NCCCN2CCCC2=O)c([N+](=O)[O-])c1 (configuration not stated)
EC50 [9]: 0.801 µM (active)

CC1CCCCN1C(=O)CSc1nc2cc3c(cc2c(=O)n1Cc1ccc2c(c1)OCO2)OCO3 (configuration not stated)
EC50 [10]: > 50 µM (not active)
IC50 [1]: > 40 µM (not active)
EC50 (Beta-galactosidase): > 40 µM (inactive)

COc1ccc(N(C)S(=O)(=O)c2cccc(C(=O)NC3CCCCC3C)c2)cc1 (configuration not stated)
IC50 [7]: 4.79 µM (active)
IC50 [8]: 7.08 µM (active)

CCCCCCCCSC1=CC(=O)C(OC)=C(OC)C1=O
IC50 [11]: 48.1 µM (inactive)
IC50 (Genome polyprotein): 12.5 µM (active)
AC50 [12]: 30.9 µM (active)
CC50 (Vero): > 40 µM (active)
